Peptide text beside a SMILES is read from it.
Columns and labels:
[1] = biological target: T1, Beta-secretase 1 (Homo sapiens, UniProt P56817); experiment: Inhibition of BACE1 using peptide substrate Rh-EVNLDAEFKQuencher at 100 uM by fluorescence resonance energy transfer (FRET) assay
[2] = biological target: T1, Beta-secretase 1; experiment: Inhibition of BACE1 using peptide substrate Rh-EVNLDAEFKQuencher by fluorescence resonance energy transfer (FRET) assay

T1 sequence (P56817 whole entry): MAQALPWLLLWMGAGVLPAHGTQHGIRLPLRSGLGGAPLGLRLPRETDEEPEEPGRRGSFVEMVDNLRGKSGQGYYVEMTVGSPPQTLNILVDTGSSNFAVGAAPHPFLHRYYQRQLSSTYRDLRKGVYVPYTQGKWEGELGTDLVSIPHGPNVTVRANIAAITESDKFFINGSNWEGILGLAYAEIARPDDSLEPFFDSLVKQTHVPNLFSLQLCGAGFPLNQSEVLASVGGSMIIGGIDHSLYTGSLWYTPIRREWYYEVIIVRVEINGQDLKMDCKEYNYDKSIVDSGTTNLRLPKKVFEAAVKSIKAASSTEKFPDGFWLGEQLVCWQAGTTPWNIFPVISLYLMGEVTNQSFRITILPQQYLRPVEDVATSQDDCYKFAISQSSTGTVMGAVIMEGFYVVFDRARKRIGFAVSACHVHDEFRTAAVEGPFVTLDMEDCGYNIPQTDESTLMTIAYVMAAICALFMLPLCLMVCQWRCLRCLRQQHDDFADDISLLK

Row | inhibition [1] | IC50 [2] | Structure (SMILES)
1 | 100% |  | Cc1nc(N/C(=N\C(=O)Nc2ccccc2)NC(=O)Nc2ccccc2)nc2ccccc12
2 | 100% | 20 µM | N#Cc1c(-c2ccccc2)cc(-c2ccccc2)nc1SCC(=O)Nc1cccc([N+](=O)[O-])c1
3 | 45% | 118 µM | N#Cc1c(-c2ccc(F)cc2)cc(-c2ccccc2)nc1SCC(=O)NC12CC3CC(CC(C3)C1)C2
4 | 80% | 50 µM | CCc1nnc(NC(=O)CSc2nc(-c3ccc(F)cc3)cc(-c3ccccc3)c2C#N)s1
5 | 90% | 10.2 µM | O=C(CSc1nc2ccc(Nc3nc(N4CCCCC4)nc(N4CCCCC4)n3)cc2s1)Nc1ccccc1F
6 | 75% | 34.5 µM | N#Cc1c(NC(=O)COC(=O)CSc2nc(-c3ccccc3)cc(-c3ccccc3)n2)sc2c1CCCC2
7 | 68% | 50 µM | COc1ccc(-c2cc(-c3ccc(Cl)cc3)c(C#N)c(SCC(=O)N(c3ccccc3)c3ccc4ccccc4c3)n2)cc1
8 | 80% | 2.8 µM | COc1ccc(CCNC(=O)CSc2nc3ccc(Nc4nc(N5CCCCC5)nc(N5CCCCC5)n4)cc3s2)cc1OC
9 | 78% | > 100 µM | O=C(Nc1ncc(Cc2cccc(Cl)c2Cl)s1)c1ccc(CSc2nnc(-c3ccncc3)n2-c2ccccc2)cc1
10 | 48% | 100 µM | Cc1nn(-c2ccccc2)c(Cl)c1C1Nc2ccccc2-c2nnc(SCc3ccccc3)nc2O1 (configuration not stated)
11 | 87% | 12.2 µM | N#Cc1c(NC(=O)C(F)(F)C(F)(F)C(F)(F)C(F)(F)C(=O)Nc2sc3c(c2C#N)CCCCCC3)sc2c1CCCCCC2
12 | 100% | 0.12 µM | CC[C@H](C)[C@H](NC(=O)[C@H](CCC(=O)O)NC(=O)[C@H](CCC(=O)O)NC(=O)[C@@H](NC(=O)[C@@H](N)CCCCN)[C@@H](C)O)C(=O)N[C@@H](CO)C(=O)N[C@@H](CCC(=O)O)C(=O)N[C@H](C(=O)N[C@@H](CC(N)=O)C(=O)N[C@@H](CC(C)C)[C@@H](O)CC(=O)N[C@H](C(=O)N[C@@H](C)C(=O)N[C@@H](CCC(=O)O)C(=O)N[C@@H](Cc1ccccc1)C(=O)O)C(C)C)C(C)C (HELM PEPTIDE1{K.T.E.E.I.S.E.V.N.[CC(C)C[C@H](N[*:1])[C@@H](O)CC(=O)[*:2]].V.A.E.F}$$$$V2.0)
13 | 83% | 21 µM | Cc1ccc(NC(=O)Cc2nnc(SCC(=O)Nc3nc(-c4ccccc4)cs3)n2C)cc1
14 | 50% | 90 µM | O=S(=O)(c1ccc(Br)cc1)N(c1cnn(Cc2ccc(Cl)c(Cl)c2)c1)S(=O)(=O)c1ccc(Br)cc1
15 | 75% | 100 µM | O=C(CSc1nnc(Cc2c[nH]c3ccccc23)n1Cc1ccccc1)c1c[nH]c2ccccc12
16 | 80% | 28.6 µM | Cc1cc(C)nc(N/C(=N\C(=O)N2c3ccccc3Sc3ccccc32)Nc2cccc([N+](=O)[O-])c2)n1
17 |  | 3 µM | Cc1nc(NC(=NC(=O)Nc2ccccc2)NC(=O)Nc2ccccc2)nc2ccccc12

Reference: ChEMBL document CHEMBL1782041, “Novel non-peptide beta-secretase inhibitors derived from structure-based virtual screening and bioassay” (Bioorg Med Chem Lett, 2009)
